Data reported in patent EP4703359A1 (Shanghai Simr Biotechnology Co., Ltd., priority 2023, dated 2024).

Molecular target: T1, α2-GABAA receptor (Homo sapiens, UniProt P18507+P47869)
T1 construct: expressed in transfected cells
Assay: Whole-cell patch-clamp electrophysiology, positive allosteric modulatory activity in α2-GABAAR-HEK293 cells
Format: cell-based
Conditions: compound 100 nM; GABA 0.10 to 0.11 µM (approximately EC7-8); normalized to reference compound CVL-865 (= 100%)
From the text: The α subunit, β subunit, and γ subunit are indispensable for forming a fully functional GABAA receptor. In this example, HEK293 cells stably expressing α2-GABAA receptors (α2-GABAAR) were constructed and screened respectively via liposome transfection (Felgner, P.L., et al. Proceedings of the National Academy of Sciences, 1987, 84: 7413-7417). The α2-GABAAR-HEK293 cell model co-expresses the α2 subunit (protein sequence referenced under GenBank accession number: NM_000807.4), β3 subunit (protein sequence referenced under GenBank accession number: NM_000814.5), and γ2 subunit (protein sequence referenced under GenBank accession number: NM_000816.3).
The above cell lines were subcultured. α2-GABAAR-HEK293 cells were amplified for testing the affinity of compounds to the benzodiazepine (BZD) site of GABAA receptors. Some of the α2-GABAAR-HEK293 cells in suspension during subculturing were plated on glass slides pre-treated with Poly-D-Lysine for electrophysiological testing (method reference: Patent CN 107344936 A, paragraph 0586).
The positive modulatory activity of the test drug on the α2-GABAA receptor was assessed using electrophysiological methods. The specific approach is as follows:
With regards to the concentration of the compound, the final concentration of all compounds used in the screening was 100 nM. For cell lines expressing α2-GABAA receptors, the GABA concentration was 0.10 to 0.11 µM (approximately EC7-8). Electrophysiological experiments were conducted using the whole-cell patch-clamp technique, which can be referenced to the method reported in the literature (Nickolls, S. A., et al. *British Journal of Pharmacology*, 2018, 175: 708-725). The composition of the extracellular solution (ECS) for electrophysiology was as follows: 150 mM NaCl, 5 mM KCl, 2.5 mM CaCl2, 1 mM MgCl2, 10 mM HEPES, and 10 mM glucose (pH 7.4). The intracellular solution (ICS) for electrophysiology was formulated as follows: 140 mM CsCl, 11 mM EGTA, 10 mM HEPES, 2 mM CaCl2, 1 mM MgCl2, 4 mM MgATP, and 2 mM TEA (pH 7.3). GABA (γ-aminobutyric acid) powder was dissolved in pure water to prepare a stock solution, which was subsequently diluted in ECS. The compound was initially dissolved in dimethyl sulfoxide to prepare a 4 mM stock solution, followed by stepwise dilution into GABA-ECS at corresponding concentrations. All solutions were freshly prepared prior to electrophysiological testing.
Electrophysiological signals were acquired using an EPC 10 amplifier and PatchMaster software (HEKA) or an Axon 700B amplifier and Clampex software (AXON). The recording electrode was pulled from borosilicate glass, with an electrode resistance of 4 to 6 MΩ. Extracellular administration was performed using the ALA-VC-8PG™ system. A single independently growing cell was selected. After forming a tight seal between the glass electrode and the cell membrane, the membrane was ruptured to establish the whole-cell configuration. The cell membrane potential was clamped at -60 mV and recorded in Gap-free mode. During the test, extracellular fluid was first applied externally for approximately 20 seconds. After the baseline (Iprebaseline) was stabilized, the extracellular solution was switched to GABA-ECS. At this point, the current induced by GABA (Igaba) can be detected. After approximately 10 to 20 seconds, once the current had stabilized, the extracellular solution was switched to a mixture of the compound and GABA-ECS until the current induced by both the compound and GABA (Itreatment) could be detected. Finally, the solution was switched to extracellular fluid, and the recording was terminated after 20 to 40 seconds. Only cells with a stable baseline, an absolute control current magnitude (Igaba - Iprebaseline) greater than 40 pA, and a relatively stable current within 10 to 20 seconds were used for compound testing. […]

T1 sequence (P47869 29-451): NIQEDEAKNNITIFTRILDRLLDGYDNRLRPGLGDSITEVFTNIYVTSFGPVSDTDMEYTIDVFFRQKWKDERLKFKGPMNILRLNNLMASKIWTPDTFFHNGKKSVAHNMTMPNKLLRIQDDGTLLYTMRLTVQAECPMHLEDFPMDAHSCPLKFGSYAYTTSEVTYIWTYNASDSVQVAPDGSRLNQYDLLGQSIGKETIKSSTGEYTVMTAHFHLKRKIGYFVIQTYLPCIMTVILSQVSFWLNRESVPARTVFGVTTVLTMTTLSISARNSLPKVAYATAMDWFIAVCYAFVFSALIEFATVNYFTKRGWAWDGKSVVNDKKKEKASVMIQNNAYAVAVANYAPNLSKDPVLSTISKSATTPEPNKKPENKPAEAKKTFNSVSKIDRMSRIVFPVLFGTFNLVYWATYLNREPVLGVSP
T1 sequence (P18507 40-467 isoform P18507-1 limits assumed): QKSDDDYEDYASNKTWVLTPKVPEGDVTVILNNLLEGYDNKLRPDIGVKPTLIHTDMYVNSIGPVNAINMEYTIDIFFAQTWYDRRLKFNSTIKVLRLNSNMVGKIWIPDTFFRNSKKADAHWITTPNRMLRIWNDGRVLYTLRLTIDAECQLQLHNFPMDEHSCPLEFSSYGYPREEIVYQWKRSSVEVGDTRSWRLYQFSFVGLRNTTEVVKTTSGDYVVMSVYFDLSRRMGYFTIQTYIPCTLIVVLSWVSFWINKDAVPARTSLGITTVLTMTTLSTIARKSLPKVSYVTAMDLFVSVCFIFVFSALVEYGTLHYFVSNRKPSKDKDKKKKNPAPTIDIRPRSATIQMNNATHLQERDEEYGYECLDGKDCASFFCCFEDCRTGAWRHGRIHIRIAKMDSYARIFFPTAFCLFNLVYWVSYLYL
T1 sequence (P28472 26-473 partner): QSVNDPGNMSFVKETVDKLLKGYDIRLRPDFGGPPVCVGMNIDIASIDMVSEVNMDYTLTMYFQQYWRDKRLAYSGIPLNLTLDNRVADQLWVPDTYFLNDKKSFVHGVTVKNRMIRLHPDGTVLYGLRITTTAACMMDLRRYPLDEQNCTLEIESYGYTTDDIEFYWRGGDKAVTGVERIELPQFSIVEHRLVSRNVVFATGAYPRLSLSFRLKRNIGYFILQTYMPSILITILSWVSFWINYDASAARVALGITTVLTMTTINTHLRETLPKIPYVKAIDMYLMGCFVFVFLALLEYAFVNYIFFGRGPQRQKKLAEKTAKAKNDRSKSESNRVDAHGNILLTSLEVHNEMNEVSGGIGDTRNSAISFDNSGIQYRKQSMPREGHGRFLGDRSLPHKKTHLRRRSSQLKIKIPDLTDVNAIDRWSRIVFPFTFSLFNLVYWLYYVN

Structure (SMILES) | α2-GABAAR Positive allosteric modulatory activity [%]
CCCNC(=O)c1nc2c(-c3cc4ncoc4cc3F)cccn2c1N [Example 98] | 64
CCCNC(=O)c1nc2c(-c3cc(F)cc(C#N)c3)c(F)ccn2c1N [Example 127] | 77
CCCNC(=O)c1nc2c(-c3cc(F)c4ocnc4c3)cccn2c1N [Example 99] | 31
CCCNC(=O)c1nc2c(CC(C)C)c(F)ccn2c1N [Example 119] | 33
COc1cccc(F)c1-c1c(F)ccn2c(N)c(C(=O)NCC=C(F)F)nc12 [Example 131, 3-Amino-N-(3,3-difluoroallyl)-7-fluoro-8-(2-fluoro-6-methoxyphenyl)imidazo[1,2-a]pyridine-2-carboxamide] | 82

Same assay, conditions: compound 100 nM; GABA 0.10 to 0.11 µM (approximately EC7-8); normalized to reference compound CVL-865 (= 100%); read-out: α2-GABAAR Positive allosteric modulatory activity

Emax at 0.1 µM [%] | Structure (SMILES)
73 | CCCNC(=O)c1nc2c(-c3ccnc(C)c3)cccn2c1N [Example 86, 3-Amino-8-(2-methylpyridin-4-yl)-N-propylimidazo[1,2-a]pyridine-2-carboxamide]
52 | CCCNC(=O)c1nc2c(-c3cc4cccnc4cc3OC)cccn2c1N [Example 97, 3-Amino-8-(7-methoxyquinolin-6-yl)-N-propylimidazo[1,2-a]pyridine-2-carboxamide]
88 | CCCNC(=O)c1nc2c(-c3cc(OC)nnc3OC)c(F)ccn2c1N [Example 117, 3-Amino-8-(3,6-dimethoxypyridazin-4-yl)-7-fluoro-N-propylimidazo[1,2-a]pyridine-2-carboxamide]
59 | CCCNC(=O)c1nc2c(-c3cnc(OC)nc3OC)c(F)ccn2c1N [Example 120, 3-Amino-8-(2,4-dimethoxypyrimidin-5-yl)-7-fluoro-N-propylimidazo[1,2-a]pyridine-2-carboxamide]
35 | CCNC(=O)c1nc2c(-c3c(F)cccc3OC)cccn2c1N [Example 2, 3-Amino-8-(2-fluoro-6-methoxyphenyl)-N-ethylimidazo[1,2-a]pyridine-2-carboxamide]
53 | CCCNC(=O)c1nc2c(-c3cccnc3F)c(F)ccn2c1N [Example 112, 3-Amino-7-fluoro-8-(2-fluoropyridin-3-yl)-N-propylimidazo[1,2-a]pyridine-2-carboxamide]
27 | COc1cccc(F)c1-c1cccn2c(N)c(C(=O)NC34CC(C3)C4)nc12 [Example 11, 3-Amino-N-(bicyclo[1.1.1]pent-1-yl)-8-(2-fluoro-6-methoxyphenyl)imidazo[1,2-a]pyridine-2-carboxamide]
52 | CCCNC(=O)c1nc2c(-c3cc4cn(C)nc4cc3OC)cccn2c1N [Example 96, 3-Amino-8-(6-methoxy-2-methyl-2H-indazol-5-yl)-N-propylimidazo[1,2-a]pyridine-2-carboxamide]
100 | CCCNC(=O)c1nc2c(-c3c(F)ccc4c3OCC4)cccn2c1N [Example 106, 3-Amino-8-(6-fluoro-2,3-dihydrobenzofuran-7-yl)-N-propylimidazo[1,2-a]pyridine-2-carboxamide]
48 | CCCNC(=O)c1nc2c(-c3cnc(OC)nc3OC)cccn2c1N [Example 81, 3-Amino-8-(2,4-dimethoxypyrimidin-5-yl)-N-propylimidazo[1,2-a]pyridine-2-carboxamide]
44 | CC1CN(C(=O)c2nc3c(-c4c(F)ccc5ccoc45)cccn3c2N)C1 [Example 102, (3-Amino-8-(6-fluorobenzofuran-7-yl)imidazo[1,2-a]pyridin-2-yl)(3-methylazetidin-1-yl)methanone]
81 | C=CCNC(=O)c1nc2c(-c3c(F)cccc3OC)cccn2c1N [Example 30, N-Allyl-3-amino-8-(2-fluoro-6-methoxyphenyl)imidazo[1,2-a]pyridine-2-carboxamide]
73 | CCCNC(=O)c1nc2c(-c3c(F)cccc3SC)cccn2c1N [Example 74, 3-Amino-8-(2-fluoro-6-(methylthio)phenyl)-N-propylimidazo[1,2-a]pyridine-2-carboxamide]
31 | CCCNC(=O)c1nc2c(-c3cccc(-c4ccnnc4)c3)cccn2c1N [Example 44]
30 | CCCNC(=O)c1nc2c(-c3cccc(N4CCOC4=O)c3)cccn2c1N [Example 41, 3-Amino-8-(3-(2-oxooxazolidin-3-yl)phenyl)-N-propylimidazo[1,2-a]pyridine-2-carboxamide]
26 | C#CCNC(=O)c1nc2c(-c3c(F)cccc3OC)cccn2c1N [Example 31, N-Propargyl-3-amino-8-(2-fluoro-6-methoxyphenyl)imidazo[1,2-a]pyridine-2-carboxamide]
44 | CCCNC(=O)c1nc2c(-c3ccnc(C#N)c3)cccn2c1N [Example 89, 3-Amino-8-(2-cyanopyridin-4-yl)-N-propylimidazo[1,2-a]pyridine-2-carboxamide]
33 | CCCNC(=O)c1nc2c(-c3cc4c(cc3OC)N(C)CCO4)cccn2c1N [Example 92, 3-Amino-8-(6-methoxy-4-methyl-3,4-dihydro-2H-benzo[b][1,4]oxazin-7-yl)-N-propylimidazo[1,2-a]pyridine-2-carboxamide]
123 | CCCNC(=O)c1nc2c(-c3cccnc3OC)c(F)ccn2c1N [Example 115, 3-Amino-7-fluoro-8-(2-methoxypyridin-3-yl)-N-propylimidazo[1,2-A]pyridine-2-carboxamide]
50 | CCCNC(=O)c1nc2c(-c3cccc(/C(C)=N/OC)c3)cccn2c1N [Example 38, (E)-3-Amino-8-(3-(1-(methoxyimino)ethyl)phenyl)-N-propylimidazo[1,2-a]pyridine-2-carboxamide]
45 | CCCNC(=O)c1nc2c(-c3cccnc3C)cccn2c1N [Example 142, 3-Amino-8-(2-methylpyridin-3-yl)-N-propylimidazo[1,2-a]pyridine-2-carboxamide]
35 | COc1cccc(F)c1-c1cccn2c(N)c(C(=O)NCc3ccccn3)nc12 [Example 20, 3-Amino-8-(2-fluoro-6-methoxyphenyl)-N-(pyridin-2-methyl)imidazo[1,2-a]pyridine-2-carboxamide]
90 | CCCNC(=O)c1nc2c(-c3c(OC)ccc4ccc(F)cc34)cccn2c1N [Example 107, 3-Amino-8-(7-fluoro-2-methoxynaphthalen-1-yl)-N-propylimidazo[1,2-a]pyridine-2-carboxamide]
77 | CCCNC(=O)c1nc2c(-c3cc(OC)ccc3OC)c(F)ccn2c1N [Example 111]
50 | CCCNC(=O)c1nc2c(-c3c(F)ccc4ccc(OC)cc34)cccn2c1N [Example 108, 3-Amino-8-(2-fluoro-7-methoxynaphthalen-1-yl)-N-propylimidazo[1,2-a]pyridine-2-carboxamide]
61 | COc1cccc(F)c1-c1cccn2c(N)c(C(=O)Nc3cnn(C)c3)nc12 [Example 15, 3-Amino-8-(2-fluoro-6-methoxyphenyl)-N-(1-methyl-1H-pyrazol-4-yl)imidazo[1,2-a]pyridine-2-carboxamide]
62 | CCCNC(=O)c1nc2c(-c3cc4oc(=O)n(C)c4cc3OC)cccn2c1N [Example 93, 3-Amino-8-(5-methoxy-3-methyl-2-oxo-2,3-dihydrobenzo[d]oxazol-6-yl)-N-propylimidazo[1,2-a]pyridine-2-carboxamide]
